Measurements reported in patent US11485993B2, “Therapeutic drug monitoring” (Fastinov S.A., priority 2017, dated 2022).

Columns and labels:
S. aureus ATCC 29213 = experiment: Flow cytometric measurement of the antimicrobial activity of vancomycin in human serum; assay type: cell-based; conditions: S. aureus ATCC 29213, flow cytometry, FIGS. 5A and 5B
Protocol: Material and Methods. S. aureus ATCC 29213 was incubated for 1 hour with serial concentrations of vancomycin (4 μg/ml to 0.03 μg/ml) in donor drug free human serum and stained with adequate fluorochrome. The intensity of fluorescence and the changes in the scattergram of the bacterial population were recorded after flow cytometry analysis. Twenty samples of serum collected from patients receiving vancomycin were obtained from the biochemistry lab. The vancomycin drug concentrations were analyzed by Architect iVancomycin (Abbott) using the Architect i1000 SR analyzer (Abbott). Architect iVancomycin is an in vitro chemiluminescent microparticle immunoassay (CMIA) for the quantitative measurement of vancomycin in human serum or plasma. In parallel, serum samples were incubated with the S. aureus control strain, after 10 serial dilutions (1:2) and analyzed by flow cytometry (Accury, BD) according the protocol described in Example 1. A flow cytometric template of cell analysis was defined in order to include the majority of the bacterial population. A comparison of the concentrations obtained with the Architect iVancomycin method and with the new flow cytometric method was performed using Student's T test.

E. coli ATCC 25922 = experiment: Flow cytometric measurement of the antimicrobial activity of colistin in human plasma; assay type: cell-based
Protocol: Serial dilutions of colistin (Sigma), ranging between 0.008 and 2 μg/ml, were inoculated in human plasma (free of colistin) and incubated with E. coli ATCC 25922 during 60 minutes and afterwards stained with a fluorescent dye and analyzed in a flow cytometer (Accuri, BD) using a protocol previously optimized (FIG. 3): a flow cytometric template of cell analysis was defined in order to include the majority of the bacterial population and at least 20,000 cells are analyzed according size, complexity and intensity of fluorescence on the different fluorescent channels.

CN[C@H](CC(C)C)C(=O)N[C@H]1C(=O)N[C@@H](CC(N)=O)C(=O)N[C@H]2C(=O)N[C@H]3C(=O)N[C@H](C(=O)N[C@H](C(=O)O)c4cc(O)cc(O)c4-c4cc3ccc4O)[C@H](O)c3ccc(c(Cl)c3)Oc3cc2cc(c3O[C@@H]2O[C@H](CO)[C@@H](O)[C@H](O)[C@H]2O[C@H]2C[C@](C)(N)[C@H](O)[C@H](C)O2)Oc2ccc(cc2Cl)[C@H]1O [vancomycin]
cellular lesion with increasing concentration (reduction of cell density plot, increase of intensity of fluorescence) (S. aureus ATCC 29213): a dose effect cellular lesion is evident

colistin
morphological changes of the bacterial cell population after serial increasing concentrations (E. coli ATCC 25922; E. coli ATCC 25922, flow cytometry scattergrams): Morphological changes were evident | amount of cells at the acquisition gate after incubation with increasing concentrations (E. coli ATCC 25922; E. coli ATCC 25922, flow cytometry, FIG. 4): a dose-dependent effect was achieved
